Patent US9758492B2, “IDO inhibitors” (Bristol-Myers Squibb Company, priority 2013, dated 2017)

How the values were obtained:
Human IDO1 = biological target: T1, Human IDO1 (Homo sapiens, UniProt P14902); experiment: IDO Kynurenine Assay with Human IDO1/HEK293 Cells; type: cell-based; conditions: read-out: HEK human IDO-1 (IC50)
T1 construct: expressed in transfected cells; host or cells: HEK293
How it was run: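 HEK293 cells stably expressing human IDO1, in phenol red-free RPMI/10% FBS, exposed to compound for 20 h at 37 °C. Stopped with 0.2% TCA (50 °C, 30 min); kynurenine in supernatant detected with Ehrlich reagent, absorbance 490 nm.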

IDO [1] = biological target: T2, IDO (Homo sapiens, UniProt P14902); experiment: LLE_IDO_ABS_DR (IDO assay)
T2 sequence (P14902 whole entry): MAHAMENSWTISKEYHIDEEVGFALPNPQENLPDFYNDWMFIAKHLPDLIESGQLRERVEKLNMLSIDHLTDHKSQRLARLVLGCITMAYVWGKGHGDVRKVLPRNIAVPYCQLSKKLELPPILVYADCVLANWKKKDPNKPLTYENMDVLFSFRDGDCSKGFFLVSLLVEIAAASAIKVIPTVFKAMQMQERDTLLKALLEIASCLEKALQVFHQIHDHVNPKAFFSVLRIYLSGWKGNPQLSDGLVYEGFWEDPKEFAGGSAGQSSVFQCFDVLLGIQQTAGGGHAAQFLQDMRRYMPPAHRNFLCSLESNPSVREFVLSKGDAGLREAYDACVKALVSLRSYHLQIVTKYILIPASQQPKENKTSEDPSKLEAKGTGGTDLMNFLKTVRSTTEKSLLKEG

IDO [2] = biological target: T2, IDO; experiment: Kynurenine assay in Hela cells stimulated with IFN-γ to express IDO; type: cell-based; design: endogenous in cells; host or cells: HeLa (ATCC CCL-2), stimulated with human recombinant IFN-gamma; conditions: 20 h, read-out: Hela Kyurenine (IC50)
Procedure: IFNg (R&D, 28-IF-100)—resuspend at 10 ug/mL in PBS with 0.1% BSA 30% TCA
Ehrlich reagent (2% w/v p-dimethylaminobenzaldehyde in glacial acetic acid)
Cell Titer 96 Aqueous Non-Radioactive Cell Proliferation Assay, MTS (Promega, Cat # G5430)
Cell Lines and Culture Conditions
Hela cancer cell lines were acquired from the American Type Culture Collection. Cells were maintained in phenol red free-RPMI1640 medium containing high glucose and L-glutamine (Invitrogen) supplemented with 10% fetal bovine serum (FBS; Invitrogen). Cell cultures were incubated at 37° C., 5% CO2, and 100% humidity.
Cell Treatment and Kynurenine Assay
Hela cells were seeded on 96-well plates (40,000 cells per well) and allowed to adhere for 5-6 hours. Cells were then treated with vehicle (DMSO) or with IDO inhibitor at a top dose of 30 μM (3-fold dilution all the way down to 1.5 nM). A final concentration of 100 ng/mL of human recombinant IFN-γ (R&D, 28-IF-100) was immediately added to the cells to stimulate IDO expression. Treated cells were then incubated for 20 hours at 37° C. At the end of the 20 h incubation, reactions were terminated by the addition of 30% TCA to each well. Plates were incubated for 30 minutes at 50° C. to hydrolyze N-formylkynurenine to kynurenine. Cells were centrifuged 10 minutes at 2400 rpm. 100 ul of supernatants were transferred to new 96 flat well plates and mixed with 100 ul Ehrlich reagent. The resulting solution was incubated 10 minutes at RT. Absorbance at 490 nm was read using Spectra Max 384 (Molecular Devices).

T1 sequence (P14902 whole entry): as above

SMILES	IC50 (Human IDO1)	IC50 (IDO [1])	IC50 (IDO [2])
Cc1ccc(NC(=O)Nc2cc(-c3ccccc3-c3nnn[nH]3)ccc2N(CC(C)C)CC(C)C)cc1 [Example 1, 1-(4-(Diisobutylamino)-2′-(1H-tetrazol-5-yl)biphenyl-3-yl)-3-p-tolylurea]	3.31 nM	3.45 nM	1.37 nM
Cc1ccc(NC(=O)Nc2cc(-c3ccccc3C(=O)O)c(F)cc2N(C)C2CCCCC2)cc1 [Example 221, 4′-(cyclohexyl(methyl)ami-no)-2′-fluoro-5′-(3-p-tolylureido)biphenyl-2-carboxylic acid]		9.05 nM	6.56 nM
Cc1ccc(NC(=O)Nc2cc(-c3ccccc3-c3nnn[nH]3)c(F)cc2N(C)C2CCCCC2)cc1 [Example 222, 1-(4-(cyclohexyl(methyl)ami-no)-6-fluoro-2′-(1H-tetrazol-5-yl)biphenyl-3-yl)-3-p-tolylurea]		10 nM	2.63 nM

Now from value to molecule:

IC50 (Human IDO1)	IC50 (IDO [1])	IC50 (IDO [2])	SMILES
	420 nM	160 nM	Cc1ccc(NC(=O)Nc2cc(-c3ccccc3-c3nnn[nH]3)c(F)cc2N(CC(F)F)CC2CC2)cc1 [Example 223, 1-(4-((cyclopropylmethyl)(2,2-difluoroethyl)amino)-6-fluoro-2′-(1H-tetrazol-5-yl)biphenyl-3-yl)-3-p-tolylurea]
	640 nM	440 nM	Cc1ccc(NC(=O)Nc2cc(-c3ccccc3C(=O)O)c(F)cc2N(CC(F)F)CC2CC2)cc1 [Example 224, 4′-((cyclopropylmethyl)(2,2-difluoroethyl)amino)-2′-fluoro-5′-(3-p-tolylureido)biphenyl-2-carboxylic acid]
